Results as given in US20140140962A1, “VIRUSES MODIFIED WITH UNNATURAL MOIETIES AND METHODS OF USE THEREOF” (priority 2011, published 2014).

Legend:
HEK 293 cells = experiment: Plaque forming assay (infectivity); format: cell-based; details: inferred from plaque assays, even at high concentration
Method: Dulbecco's modified Eagle's medium (DMEM), RPMI 1640, penicillin/streptomycin and 0.5% trypsin-EDTA were purchased from GIBCO (Grand Island, N.Y.). RPMI 1640 minus folic acid was obtained from Sigma. Fetal calf serum (FCS) and bovine calf serum (BCS) was purchased from HyClone (Logan, Utah). 293 cells were maintained in DMEM supplemented with 10% BCS, 2 mM glutamine, 100 U/mL penicillin, 100 μg/mL streptomycin. 4T1 cells (ATCC) were maintained in RPMI 1640 medium containing 10% FCS, 2 mM L-glutamine, 100 U/mL penicillin, and 100 μg/mL streptomycin. For 4T1 cells grown without folate, RPMI 1640 minus folic acid was supplemented with 10% FCS, 0.3 mg/mL L-glutamine, 2 mg/mL sodium bicarbonate, 100 U/mL penicillin, 100 μg/mL streptomycin. All cells were maintained in 100×20 mm tissue culture dishes obtained from BD biosciences (Franklin Lakes, N.J.) at 37° C. and 5% CO2. HEK 293 cells in […] culture plates were infected with 400 μL of azide labeled virus particles at concentrations of 10^3 particles/mL. The plates were overlaid with complete media containing 2.8% bactoagar and 10% BCS. […] The plaques were counted within a day after the final overlay.
HEK 293 cells cultivated in 6 mL culture plates were infected with 400 μL of azide labeled virus particles at concentrations of 10^3 particles/ml. […] The plaques were counted within a day after the final overlay.

[1] = tested on: drug resistant cancer cell lines; details: cited from earlier work
[2] = tested on: cancer stem cell related genes (Oct4, Sox2, Nanog, and c-Myc); details: 3 unrelated invasive colon cancer cell lines; cited from earlier work

Compound | toxicity to the cells (HEK 293 cells) | cytotoxicity against drug resistant cancer cell lines [1] | inhibition of cancer stem cell related genes [2]
[N-]=[N+]=NCC[C@H](N)C(=O)O [Aha, Azidohomoalanine] | not toxic to the cells | – | –
CC(=O)O[C@@]12CO[C@@H]1C[C@H](O)[C@@]1(C)C(=O)[C@H](OC(=O)C3CC3)C3=C(C)[C@@H](OC(=O)[C@H](O)[C@H](C=C(C)C)NC(=O)OC(C)(C)C)C[C@@](O)([C@@H](OC(=O)c4ccccc4)[C@H]21)C3(C)C [SB-T-1214] | – | significantly improved cytotoxicity | substantial inhibition
